The results in this text go back to patent publication US6455057B1, “Skin care composition” (Elizabeth Arden Co., div. of Conopco, Inc., priority 1999, dated 2002).

Values joined by “and” are separate entries in the source; they are usually repeats but may differ in a detail not shown here. Equal values may be shown once.

Holding throughout (assay type): cell-based
Assay [1] concerns decorin synthesis in human dermal fibroblasts. Kind of assay: Dot blot assay for decorin protein in dermal fibroblast conditioned medium.
Description: (§1) Primary human foreskin fibroblasts at passage 2 (P2) were seeded into 12-well plates at 10000 cells/cm^2 and maintained for 24 hours in an atmosphere of 5% carbon dioxide and 4% oxygen in Dulbeccos Modified Eagles Medium (DMEM) supplemented with 10% foetal calf serum. After this time the cells were washed with serum free DMEM and then incubated in fresh serum free DMEM for a further 60 hours. The fibroblast monolayers were then washed again with serum free DMEM. Test reagents and vehicle controls were added to the cells in triplicate in a final volume of 0.4 ml/well fresh serum free DMEM and incubated for a further 24 hours. This fibroblast conditioned medium was either analysed immediately or snap frozen in liquid nitrogen and stored at −70° C. for future analysis. The cells were then counted and data from the dot-blot analysis subsequently standardised to cell number.
(§2) Samples of conditioned medium from dermal fibroblasts treated with vehicle (as a control) or test reagents were supplemented with 20 mM dithiothreitol (1:10 dilution of 200 mM stock solution) and 0.1% sodium dodecylsulphate (1:100 dilution of 10% stock solution), mixed well and then incubated at 75° C. for 2 minutes. A standard for the assay was generated by serial dilution of neat fibroblast conditioned medium from fibroblasts seeded at 10000 cells/cm^2 in a 175 cm^2 flask and maintained in serum free DMEM as described above.
Assay samples were subsequently applied in triplicate to a prewetted sheet of Immobilon-P transfer membrane using the 96-well Bio-Dot Apparatus from Bio-Rad as described in the manufacturers guidelines. Approximately 200 μl of medium was applied per well. The medium was allowed to filter through the membrane under gravity (30 minutes) after which the membrane was washed twice with PBS (200 μl). These PBS washes were allowed to filter through the membrane under gravity (2×15 minutes). The Bio-Dot apparatus was then attached to a vacuum manifold and a third and final PBS wash carried out under suction. The apparatus was disassembled, the membrane removed and quickly cut as required before being placed in blocking buffer overnight at 4° C. Membranes prepared for decorin analysis were blocked with 3% (w/v) BSA/0.1% (v/v) Tween 20 in PBS, whilst those for procollagen-I analysis were blocked with 5% (w/v) non fat dried milk powder/0.05% Tween 20 in PBS.
Following this the Immobilon strips were again washed with TBS/Tween 20 (3×5 minutes) before being allowed to dry in air at room temperature. The dried membranes were wrapped in cellophane and exposed to a Molecular Dynamics storage phosphor screen for 16-18 hours. At the end of this time the exposed screen was scanned by a phosphorimager (Molecular Dynamics Phosphorimager SF) using ImageQuant™ software. Dot intensity was assessed by computer-assisted image analysis using the quantification tools in ImageQuant™, standardised to cell number and the effects of various test reagents on decorin and procollagen-I synthesis were determined relative to a vehicle treated control value of 100 arbitrary units.
Assay [2] deals with ICAM production by human skin fibroblasts. Kind of assay: Fibroblast ICAM-1 assay (PMA-induced).
Description: Intracellular adhesion molecules (ICAM) and PEG2 production by human skin fibroblasts can be induced by the inflammatory stimulus PMA (phorbal myristate acetate). PMA represents an external stressor which induces oxidative stress and inflammatory responses in cells.
Primary human foreskin fibroblasts at passage 2 (P2) were seeded into 96-well plates at 10000 cells/well and maintained for 24 hours in an atmosphere of 5% carbon dioxide in Dulbeccos Modified Eagles Medium (DMEM) supplemented with 10% foetal calf serum. The test substances as indicated in the table 2 below were added to fresh cell media (DMEM, supplemented with 10% foetal calf serum) in dimethylsulphoxide and ethanol final concentration<1%) in triplicate and incubated for a further 24 hours. Phorbal myristate acetate (PMA) (Sigma) was added 10 nM to the media and the cells incubated for a further 24 hours. […] The fibroblasts/media were then analysed as described below immediately or snap frozen in liquid nitrogen and stored at −70° C. for future analysis. The cells were then counted and data from the dot-blot analysis subsequently standardised to cell number.
Media were discarded and cells washed with Dulbecco PBS. To the washed cells, 150 μl 0.1% Triton X-100 (Sigma) was added for 3 minutes to extract ICAM from cell membrane. The extracts were transferred to Eppendoff centrifuge tubes and centrifuged at 1000 g for 2 min to remove cell debris. A volume of 100 μl supernatant was used for ICAM assay. The soluble ICAM-1 was assessed with commercially available immunoenzymometric assay kit (R&D Systems). Concentrations of ICAM-1 in the samples were determined based on parallel running standard curve.
Assay [3] concerns procollagen-I synthesis in human dermal fibroblasts. Kind of assay: Dot blot assay for procollagen-I protein in dermal fibroblast conditioned medium. The conditions noted are these: vehicle control = 100.
Description: as §1, §2
Assay samples were subsequently applied in triplicate to a prewetted sheet of Immobilon-P transfer membrane using the 96-well Bio-Dot Apparatus from Bio-Rad as described in the manufacturers guidelines. Approximately 200 μl of medium was applied per well. The medium was allowed to filter through the membrane under gravity (30 minutes) after which the membrane was washed twice with PBS (200 μl). These PBS washes were allowed to filter through the membrane under gravity (2×15 minutes). The Bio-Dot apparatus was then attached to a vacuum manifold and a third and final PBS wash carried out under suction. The apparatus was disassembled, the membrane removed and quickly cut as required before being placed in blocking buffer overnight at 4° C. […]
Following this the Immobilon strips were again washed with TBS/Tween 20 (3×5 minutes) before being allowed to dry in air at room temperature. […] Dot intensity was assessed by computer-assisted image analysis using the quantification tools in ImageQuant™, standardised to cell number and the effects of various test reagents on decorin and procollagen-I synthesis were determined relative to a vehicle treated control value of 100 arbitrary units.
The test system of assay [4] is PGE2 production by human skin fibroblasts. Kind of assay: Fibroblast PGE2 assay (PMA-induced). The conditions noted are these: PMA 10 nM + genistein 1 μM, read-out: % of Inhibition Of Fibroblast PGE2 Levels.
Description: Primary human foreskin fibroblasts at passage 2 (P2) were seeded into 96-well plates at 10000 cells/well and maintained for 24 hours in an atmosphere of 5% carbon dioxide in Dulbeccos Modified Eagles Medium (DMEM) supplemented with 10% foetal calf serum. The test substances as indicated in the table 2 below were added to fresh cell media (DMEM, supplemented with 10% foetal calf serum) in dimethylsulphoxide and ethanol final concentration<1%) in triplicate and incubated for a further 24 hours. Phorbal myristate acetate (PMA) (Sigma) was added 10 nM to the media and the cells incubated for a further 24 hours. […] The fibroblasts/media were then analysed as described below immediately or snap frozen in liquid nitrogen and stored at −70° C. for future analysis.
Volumes of 50 μl culture medium were taken for PGE2 assay after gently shaking the culture plate. PGE2 levels in the medium were determined with a Biotrak PGE2 immunoassay kit (Amersham, UK). The assay is based on the competition between unlabelled PGE2 in the sample and a fixed quantity of horseradish peroxidase labelled PGE2 for a limited amount of fixed PGE2 specific antibody. Concentrations of unlabelled sample PGE2 are determined according to a standard curve which was obtained at the same time.

`O=C(O[C@@H]1Cc2c(O)cc(O)cc2O[C@@H]1c1cc(O)c(O)c(O)c1)c1cc(O)c(O)c(O)c1` [EGCG, epigallocatechin gallate]: the Decorin was found to be 118.4% in assay [1] (0.005 μg/ml EGCG, vehicle control = 100); 111.7% in assay [1] (0.05 μg/ml EGCG, vehicle control = 100); 120.2% in assay [1] (0.5 μg/ml EGCG, vehicle control = 100). Further, the “% of inhibition of fibroblast ICAM production” value in assay [2] (PMA 10 nM + EGCG 10 μM) is on record as 14.4%.

For `CCCCCCCCCCC/C=C\CCCCC(=O)O` [PA, petroselinic acid], the Decorin in assay [1] (0.01 μM PA, relative to vehicle treated control = 100 arbitrary units, separate experiments) is 102.7% and 100.9% and 95.08% and 93.97% and 93.7% and 91.6%; in assay [1] (0.1 μM PA, vehicle control = 100), 100.3%. The Procollagen-I in assay [3] (0.01 μM PA) worked out at 117.34%; in assay [3] (0.1 μM PA) it was 90.94%.

Consider `O=c1c(-c2ccc(O)cc2)coc2cc(O)ccc12` [daidzein], for which the Decorin in assay [1] (0.01 μM daidzein, vehicle control = 100) is on record as 92.83%. The molecule further displayed a Procollagen-I in assay [3] (0.01 μM daidzein) of 96.04%.

In assay [1] (0.001 μg/ml gallic acid, vehicle control = 100), `O=C(O)c1cc(O)c(O)c(O)c1` [gallic acid] displayed a Decorin of 96.6%.

What is called inhibition is the change of the read-out against control, counted positive when it falls. As for `O=c1c(-c2ccc(O)cc2)coc2cc(O)cc(O)c12` [genistein], the Decorin in assay [1] (1 μM genistein, vehicle control = 100) is 99.75%. For the same molecule, the inhibition at 1 µM was determined as 86.2% in assay [4] and 30.6% in assay [2] (Homo sapiens, Skin fibroblast, PMA 10 nM + genistein 1 μM). The Procollagen-I in assay [3] (1 μM genistein) stood at 101.74%.

In turn, `O=c1c(O)c(-c2ccc(O)c(O)c2)oc2cc(O)cc(O)c12` [quercetin] registered a Decorin in assay [1] (1 μM quercetin, vehicle control = 100) of 97.60%. Moreover, the inhibition at 10 µM in assay [2] (Homo sapiens, Skin fibroblast, PMA 10 nM + quercetin 10 μM) amounted to 27.8%.
